Values after ≈ are worked out from the molar mass of the structure shown. Where a name gives a salt, the structure may show the parent alone. Read-outs that look alike come from different tables or passages of the source.

This passage reports ED50 and EC50 results from patent US4146718A, “Alkyl 5,6-dichloro-3,4-dihydro-2(1H)-iminoquinazoline-3-acetate hydrohalides” (Bristol-Myers Company, priority 1978, dated 1979).

Assay [1] concerns Rabbit - PRP (ADP- and collagen-induced platelet aggregation). Kind of assay: Aggregometry - Rabbit - PRP, Ex Vivo. Type of assay: in vivo. Conditions: Oryctolagus cuniculus, ip. An excerpt: (§1) As stated above, the compound of Formula I is a known blood platelet antiaggregative agent. Table I compares the activities of the compound of Formula I and other known blood platelet antiaggregative agents in various antiaggregative and antithrombosis tests. Although the compounds of Formula III are primarily intended as intermediates in the preparation of the compound of Formula I, they themselves have blood platelet antiaggregative properties. For comparison purposes, one of the compounds of Formula III (R^1 = ethyl, X = bromo) is included in Table I. The tests referred to in Table I were conducted as set out in detail in J. S. Fleming, et al., Journal of Pharmacology and Experimental Therapeutics, 194, 435 (1975).
(§2) Antiaggregative and Antithrombosis Tests in Various In Vitro, Ex Vivo
(§3) Aggregometry - Rabbit - PRP
(§4) (μg/ml) (mg/kp ip) Biolaser
(§5) PRP = Platelet-rich plasma
(§6) ADP = Adenosine diphosphate

In another assay the test system is Biolaser Thrombosis. Kind of assay: In Vivo Animal Model: Rabbit Biolaser Thrombosis. Conditions: Oryctolagus cuniculus, read-out: ED50, Rabbit Biolaser Thrombosis.
Another assay relates to Electrical Thrombosis. Kind of assay: In Vivo Animal Model: Dog Electrical Thrombosis. Conditions: Canis lupus familiaris, read-out: ED50, Dog Electrical Thrombosis.
A further assay relates to Endotoxin Shock. Kind of assay: In Vivo Animal Model: Rat Endotoxin Shock. Particulars: po.
Description: as §1
In Vivo Animal Models ED50's (mg/kg)

In assay [2] the test system is Rabbit - PRP (ADP- and collagen-induced platelet aggregation). Kind of assay: Aggregometry - Rabbit - PRP, In Vitro. The assay is classed as cell-based. Particulars: Oryctolagus cuniculus.
Description: as §1, §2, §3, §4, §5, §6

Setting [3] is: ADP, read-out: Ex Vivo ED50, ADP.
[4] abbreviates: Collagen, read-out: Ex Vivo ED50, Collagen.
The mark [5] stands for this setting: ADP, read-out: In Vitro EC50, ADP.
Where [6] appears, read: Collagen, read-out: In Vitro EC50, Collagen.

A word on the ED50: it is the midpoint of the dose-response relation. For orientation: EC50 means the concentration that produces a half-maximal response. For the compound `O=C1C(CC[S+]([O-])c2ccccc2)C(=O)N(c2ccccc2)N1c1ccccc1` (centres unmarked) [Sulfinpyrazone], the ED50 is above 100 mg/kg in assay [1] (setting [3]); 3 mg/kg in assay [1] (setting [4]); above 60 mg/kg with Biolaser Thrombosis (rabbit, iv); above 100 mg/kg in the assay with Electrical Thrombosis (dog, po); above 128 mg/kg in the assay on Endotoxin Shock. Moreover, the EC50 in assay [2] (setting [5]) was above 512 µg/mL; in assay [2] (setting [6]), 62 µg/mL (≈ 153 µM).
Turning to `CCOC(=O)CN1Cc2c(ccc(Cl)c2Cl)NC1=N` [Compound III, Ethyl 5,6-Dichloro-3,4-dihydro-2(1H)-iminoquinazoline-3-acetate Hydrobromide], the EC50 in assay [2] (setting [5]) is 9 µg/mL; in assay [2] (setting [6]), 3.6 µg/mL.
Take `O=C1CN2Cc3c(ccc(Cl)c3Cl)N=C2N1` [Compound I, 6,7-dichloro-1,5-dihydroimidazo[2,1-b]quinazolin-2(3H)-one]: the ED50 stood at 1.25 mg/kg in assay [1] (setting [3]); 1 mg/kg in assay [1] (setting [4]); 2.5 mg/kg in the assay with Biolaser Thrombosis (rabbit, po); 1.5 mg/kg in the assay with Electrical Thrombosis (dog, po); 25 mg/kg in the assay with Endotoxin Shock. Further, the EC50 in assay [2] (setting [5]) was found to be 0.3 µg/mL (≈ 1.17 µM); in assay [2] (setting [6]), 0.08 µg/mL (≈ 0.312 µM).
As to `CC(=O)Oc1ccccc1C(=O)O` [Aspirin], the ED50 was above 100 mg/kg in assay [1] (setting [3]); 3 mg/kg in assay [1] (setting [4]); above 60 mg/kg in the assay on Biolaser Thrombosis (iv); 50 mg/kg with Electrical Thrombosis (po); above 256 mg/kg in the assay with Endotoxin Shock. Besides, the EC50 was above 512 µg/mL in assay [2] (setting [5]) and 7 µg/mL (≈ 38.9 µM) in assay [2] (setting [6]).
With `OCCN(CCO)c1nc(N2CCCCC2)c2nc(N(CCO)CCO)nc(N3CCCCC3)c2n1` [Dipyridamole], the ED50 in assay [1] (setting [3]) was above 100 mg/kg; in assay [1] (setting [4]), above 100 mg/kg; in the assay on Biolaser Thrombosis (rabbit, iv), above 60 mg/kg; with Electrical Thrombosis (dog, ip) it was above 35 mg/kg; in the assay on Endotoxin Shock it was above 256 mg/kg. For the same compound, the EC50 in assay [2] (setting [5]) is above 512 µg/mL.
